Experimental data from US6673749B1, “Use of phyllocladane diterpenoids for plant growth promotion and alleviation of growth retardant allelochemicals, and method therefor” (Council of Scientific and Industrial Research, priority 2002, dated 2004).

Legend:
Format in all cases: in vivo
[1] = system: Trigonella foenum-graecum; assay: Seed germination and seedling shoot/root growth test in petridishes; details: for Percent (%) germination of seeds in relation to control on 9th day after sowing / Percent (%) root growth of seedlings in relation to control on 9th day after sowing / Percent (%) shoot growth of seedlings in relation to control on 9th day after sowing: Trigonella foenum graecum, control = 100%
Protocol: (§1) As noted above the activity of phyllocladane diterpenoids used in the practice of this invention was observed when these compounds were tested for their effects on seed germination, root and shoot growth of certain plant species and their antagonistic effect on plant growth retardants by the method described by Bagchi G. D. et al Phytochemistry, 45(6)1131-1133, 1997.
(§2) Plant growth promoting activity of calliterpenone, calliterpenone monoacetate, and calliterpenone di-acetate was examined at 0.1, 0.01 and 0.001 μM concentrations. The tests were conducted against seeds of two monocotyledonous (Hordeum vulgare and Triticum aestivum) and two dicotyledonous plants (Vigna radiata and Trigonella foenum-graecum). Control seeds were germinated in distilled water and all the observations were compared with […]. The root and shoot growth of all the plant species were affected by the phyllocladane diterpenoids, although the extent of effect varied considerably in the plant species with the chemicals and their concentrations. […] Details of the procedure adopted and results obtained are discussed in the various examples.
(§3) 100 ml stalk solutions of 0.1 μM concentration were prepared by dissolving required amounts of various test compounds (depending upon their molecular weights) in minimum amount of ethanol or acetone and adding distilled water. From this stalk solution, 0.01 μM and 0.001 μM concentrations were prepared. Calliterpenone and calliterpenone di acetate was dissolved in 2.0 ml absolute ethanol (Merc), while; calliterpenone monoacetate, isopropylideno calliterpenone and trihydroxy calliterpenone were dissolved in 2.0 ml spectral grade acetone (Ranbaxy). The respective control test solutions of distilled water of each concentration also contained equal amount of absolute ethanol or acetone. For an assay, 10 seeds were placed on Whatman filter paper (moistened with 5.0 ml of test solution in a 9.0 cm diameter petridish (in triplicate). The pteridishes were incubated for 9 days in a germinator, maintained at 25.0±1.0° C. with 90% humidity and 4 hr light/day. At the end of incubation, observations were recorded on the seedlings in terms of germination, shoot and root growth. The data on the length of shoot and root of seedlings and number of seeds germinated in different concentrations of compounds were compared with the control, which was taken as 100%. The data thus obtained were presented in Table-1.
(§4) Root growth of seedlings was measured in the similar way as shoot growth from the experiment as described in Example 1.
(§5) Effect of test compounds on germination was observed from the same experiment as described in Example 1.

Triticum aestivum = assay: as above; details: control = 100%
Protocol: as §1, §2, §3, §4, §5

Vigna radiata = assay: as above; details: for Percent (%) germination of seeds in relation to control on 9th day after sowing / Percent (%) root growth of seedlings in relation to control on 9th day after sowing / Percent (%) shoot growth of seedlings in relation to control on 9th day after sowing: Vigna radiata, control = 100%
Protocol: as §1, §2, §3, §4, §5

Hordeum vulgare = assay: as above; details: control = 100%
Protocol: as §1, §2, §3, §4, §5

Hibiscus sabdariffa = assay: Seed germination and seedling growth, comparison with GA3 (Example 4)
Protocol: as §3
(§6) Effect of calliterpenone and its derivatives on seed germination and seedling growth in Hibiscus sabdariffa and Sesbania cannabina were measured in the similar way as these were measured in Example-1.

Sesbania cannabina = assay: as above
Protocol: as §3, §6

C=C1C[C@]23C[C@@]1(O)CC[C@H]2[C@@]12C=C[C@H](O)[C@@](C)(C(=O)O1)[C@H]2[C@@H]3C(=O)O [GA3, Gibberellic acid, reference compound]
Percent (%) germination of seeds in relation to control on 9th day after sowing ([1]; 0.001 μM): 100% | Percent (%) root growth of seedlings in relation to control on 9th day after sowing ([1]; 0.001 μM): 123% | Percent (%) shoot growth of seedlings in relation to control on 9th day after sowing ([1]; 0.001 μM): 116% | Percent (%) germination of seeds in relation to control on 9th day after sowing ([1]; 0.01 μM): 100% | Percent (%) root growth of seedlings in relation to control on 9th day after sowing ([1]; 0.01 μM): 45% | Percent (%) shoot growth of seedlings in relation to control on 9th day after sowing ([1]; 0.01 μM): 112% | Percent (%) germination of seeds in relation to control on 9th day after sowing ([1]; 0.1 μM): 100% | Percent (%) root growth of seedlings in relation to control on 9th day after sowing ([1]; 0.1 μM): 45% | Percent (%) shoot growth of seedlings in relation to control on 9th day after sowing ([1]; 0.1 μM): 93% | Seed germination as compared to 100% in control ([1]; Trigonella foenum-graceum, concentration not specified): 100% | Percent (%) germination of seeds in relation to control on 9th day after sowing (Triticum aestivum; 0.001 μM): 100% | Percent (%) root growth of seedlings in relation to control on 9th day after sowing (Triticum aestivum; 0.001 μM): 131% | Percent (%) shoot growth of seedlings in relation to control on 9th day after sowing (Triticum aestivum; 0.001 μM): 120% | Percent (%) germination of seeds in relation to control on 9th day after sowing (Triticum aestivum; 0.01 μM): 100% | Percent (%) root growth of seedlings in relation to control on 9th day after sowing (Triticum aestivum; 0.01 μM): 116% | Percent (%) shoot growth of seedlings in relation to control on 9th day after sowing (Triticum aestivum; 0.01 μM): 115% | Percent (%) germination of seeds in relation to control on 9th day after sowing (Triticum aestivum; 0.1 μM): 100% | Percent (%) root growth of seedlings in relation to control on 9th day after sowing (Triticum aestivum; 0.1 μM): 62% | Percent (%) shoot growth of seedlings in relation to control on 9th day after sowing (Triticum aestivum; 0.1 μM): 113% | Seed germination as compared to 100% in control (Vigna radiata; V.radiata, concentration not specified): 200% | Percent (%) germination of seeds in relation to control on 9th day after sowing (Vigna radiata; 0.001 μM): 200% | Percent (%) root growth of seedlings in relation to control on 9th day after sowing (Vigna radiata; 0.001 μM): 102% | Percent (%) shoot growth of seedlings in relation to control on 9th day after sowing (Vigna radiata; 0.001 μM): 126% | Percent (%) germination of seeds in relation to control on 9th day after sowing (Vigna radiata; 0.01 μM): 200% | Percent (%) root growth of seedlings in relation to control on 9th day after sowing (Vigna radiata; 0.01 μM): 103% | Percent (%) shoot growth of seedlings in relation to control on 9th day after sowing (Vigna radiata; 0.01 μM): 196% | Percent (%) germination of seeds in relation to control on 9th day after sowing (Vigna radiata; 0.1 μM): 200% | Percent (%) root growth of seedlings in relation to control on 9th day after sowing (Vigna radiata; 0.1 μM): 104% | Percent (%) shoot growth of seedlings in relation to control on 9th day after sowing (Vigna radiata; 0.1 μM): 183% | Percent (%) germination of seeds in relation to control on 9th day after sowing (Hordeum vulgare; 0.001 μM): 100% | Percent (%) root growth of seedlings in relation to control on 9th day after sowing (Hordeum vulgare; 0.001 μM): 132% | Percent (%) shoot growth of seedlings in relation to control on 9th day after sowing (Hordeum vulgare; 0.001 μM): 104% | Percent (%) germination of seeds in relation to control on 9th day after sowing (Hordeum vulgare; 0.01 μM): 100% | Percent (%) root growth of seedlings in relation to control on 9th day after sowing (Hordeum vulgare; 0.01 μM): 115% | Percent (%) shoot growth of seedlings in relation to control on 9th day after sowing (Hordeum vulgare; 0.01 μM): 91% | Percent (%) germination of seeds in relation to control on 9th day after sowing (Hordeum vulgare; 0.1 μM): 100% | Percent (%) root growth of seedlings in relation to control on 9th day after sowing (Hordeum vulgare; 0.1 μM): 70% | Percent (%) shoot growth of seedlings in relation to control on 9th day after sowing (Hordeum vulgare; 0.1 μM): 55% | Seed Ger. (Hibiscus sabdariffa; 0.001 μM): 3 | Root Growth (mm) 3rd Day (Hibiscus sabdariffa; 0.001 μM): 21.5 mm | Shoot growth 3rd Day (Hibiscus sabdariffa; 0.001 μM): 47.6 | Root Growth (mm) 6th Day (Hibiscus sabdariffa; 0.001 μM): 22.8 mm | Shoot growth 6th Day (Hibiscus sabdariffa; 0.001 μM): 76.3 | Root Growth (mm) 9th Day (Hibiscus sabdariffa; 0.001 μM): 25.0 mm | Shoot growth 9th Day (Hibiscus sabdariffa; 0.001 μM): 85.8 | Seed Ger. (Hibiscus sabdariffa; 0.01 μM): 3 | Root Growth (mm) 3rd Day (Hibiscus sabdariffa; 0.01 μM): 15.8 mm | Shoot growth 3rd Day (Hibiscus sabdariffa; 0.01 μM): 39.6 | Root Growth (mm) 6th Day (Hibiscus sabdariffa; 0.01 μM): 16.6 mm | Shoot growth 6th Day (Hibiscus sabdariffa; 0.01 μM): 76.5 | Root Growth (mm) 9th Day (Hibiscus sabdariffa; 0.01 μM): 16.6 mm | Shoot growth 9th Day (Hibiscus sabdariffa; 0.01 μM): 76.5 | Seed Ger. (Hibiscus sabdariffa; 0.1 μM): 2 | Root Growth (mm) 3rd Day (Hibiscus sabdariffa; 0.1 μM): 15.3 mm | Shoot growth 3rd Day (Hibiscus sabdariffa; 0.1 μM): 46.8 | Root Growth (mm) 6th Day (Hibiscus sabdariffa; 0.1 μM): 29.3 mm | Shoot growth 6th Day (Hibiscus sabdariffa; 0.1 μM): 76.6 | Root Growth (mm) 9th Day (Hibiscus sabdariffa; 0.1 μM): 32.0 mm | Shoot growth 9th Day (Hibiscus sabdariffa; 0.1 μM): 81.6 | Seed Ger. (Sesbania cannabina; 0.001 μM): 1 | Root Growth (mm) 3rd Day (Sesbania cannabina; 0.001 μM): 35.5 mm | Shoot growth 3rd Day (Sesbania cannabina; 0.001 μM): 31.0 | Root Growth (mm) 6th Day (Sesbania cannabina; 0.001 μM): 34.0 mm | Shoot growth 6th Day (Sesbania cannabina; 0.001 μM): 85.6 | Root Growth (mm) 9th Day (Sesbania cannabina; 0.001 μM): 40.0 mm | Shoot growth 9th Day (Sesbania cannabina; 0.001 μM): 103.6 | Seed Ger. (Sesbania cannabina; 0.01 μM): 2 | Root Growth (mm) 3rd Day (Sesbania cannabina; 0.01 μM): 23.5 mm | Shoot growth 3rd Day (Sesbania cannabina; 0.01 μM): 27.0 | Root Growth (mm) 6th Day (Sesbania cannabina; 0.01 μM): 25.5 mm | Shoot growth 6th Day (Sesbania cannabina; 0.01 μM): 66.8 | Root Growth (mm) 9th Day (Sesbania cannabina; 0.01 μM): 27.8 mm | Shoot growth 9th Day (Sesbania cannabina; 0.01 μM): 67.0 | Seed Ger. (Sesbania cannabina; 0.1 μM): 1 | Root Growth (mm) 3rd Day (Sesbania cannabina; 0.1 μM): 16.5 mm | Shoot growth 3rd Day (Sesbania cannabina; 0.1 μM): 32.5 | Root Growth (mm) 6th Day (Sesbania cannabina; 0.1 μM): 16.6 mm | Shoot growth 6th Day (Sesbania cannabina; 0.1 μM): 42.3 | Root Growth (mm) 9th Day (Sesbania cannabina; 0.1 μM): 26.6 mm | Shoot growth 9th Day (Sesbania cannabina; 0.1 μM): 61.3
